In PubChem BioAssay (NCI):
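A five-concentration, 48-hour dose response in 96-well plates underlies each endpoint, interpolated linearly between surrounding concentrations. GI50 is the concentration that inhibits growth by half. At the TGI there is no net growth.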

Assays:
Experiment in all cases: growth of human tumour cells (NCI), 48 h
OVCAR-4 ovarian = system: OVCAR-4 ovarian
PC-3 prostate = system: PC-3 prostate
SK-MEL-2 melanoma = system: SK-MEL-2 melanoma
HCC-2998 colon = system: HCC-2998 colon
SN12C renal = system: SN12C renal
KM12 colon = system: KM12 colon
HT29 colon = system: HT29 colon
SR leukemia = system: SR leukemia
786-0 renal = system: 786-0 renal
HL-60(TB) leukemia = system: HL-60(TB) leukemia
EKVX NSCLC = system: EKVX NSCLC
SF-539 CNS = system: SF-539 CNS
HOP-62 NSCLC = system: HOP-62 NSCLC
U251 CNS = system: U251 CNS
ACHN renal = system: ACHN renal
K-562 leukemia = system: K-562 leukemia
T-47D breast = system: T-47D breast
DU-145 prostate = system: DU-145 prostate
CCRF-CEM leukemia = system: CCRF-CEM leukemia
SF-268 CNS = system: SF-268 CNS
SK-OV-3 ovarian = system: SK-OV-3 ovarian
SNB-75 CNS = system: SNB-75 CNS
OVCAR-8 ovarian = system: OVCAR-8 ovarian
HCT-15 colon = system: HCT-15 colon
OVCAR-3 ovarian = system: OVCAR-3 ovarian
LOX IMVI melanoma = system: LOX IMVI melanoma
RXF 393 renal = system: RXF 393 renal
HCT-116 colon = system: HCT-116 colon
NCI-H226 lung = system: NCI-H226 lung
SW-620 colon = system: SW-620 colon
BT-549 breast = system: BT-549 breast
SF-295 CNS = system: SF-295 CNS
IGROV1 ovarian = system: IGROV1 ovarian
UACC-62 melanoma = system: UACC-62 melanoma
A498 renal = system: A498 renal
UACC-257 melanoma = system: UACC-257 melanoma
MOLT-4 leukemia = system: MOLT-4 leukemia
HS 578T breast = system: HS 578T breast
OVCAR-5 ovarian = system: OVCAR-5 ovarian
M14 melanoma = system: M14 melanoma
A549 NSCLC = system: A549 NSCLC
MCF7 breast = system: MCF7 breast
SK-MEL-5 melanoma = system: SK-MEL-5 melanoma
UO-31 renal = system: UO-31 renal
CAKI-1 renal = system: CAKI-1 renal
COLO 205 colon = system: COLO 205 colon
NCI/ADR-RES ovarian = system: NCI/ADR-RES ovarian
SK-MEL-28 melanoma = system: SK-MEL-28 melanoma
HOP-92 NSCLC = system: HOP-92 NSCLC
MDA-MB-231 breast = system: MDA-MB-231 breast
SNB-19 CNS = system: SNB-19 CNS
MDA-MB-435 = system: MDA-MB-435
NCI-H460 lung = system: NCI-H460 lung
TK-10 renal = system: TK-10 renal
NCI-H23 lung = system: NCI-H23 lung

COc1ccc(C(=O)NCCNc2nccc(-c3c(-c4ccc(F)cc4)nc4sccn34)n2)cc1
GI50 (OVCAR-4 ovarian): 10.5 µM | TGI (OVCAR-4 ovarian): 84 µM | GI50 (PC-3 prostate): 10.9 µM | TGI (PC-3 prostate): > 100 µM | GI50 (SK-MEL-2 melanoma): 6.23 µM | TGI (SK-MEL-2 melanoma): 30.4 µM | GI50 (HCC-2998 colon): 9.72 µM | TGI (HCC-2998 colon): > 100 µM | GI50 (SN12C renal): 7.8 µM | TGI (SN12C renal): > 100 µM | GI50 (KM12 colon): 2.99 µM | TGI (KM12 colon): 22.4 µM | GI50 (HT29 colon): 2.5 µM | TGI (HT29 colon): > 100 µM | GI50 (SR leukemia): 5.93 µM | TGI (SR leukemia): 49.1 µM | GI50 (786-0 renal): 8.04 µM | TGI (786-0 renal): > 100 µM | GI50 (HL-60(TB) leukemia): 13.6 µM | TGI (HL-60(TB) leukemia): 47.8 µM | GI50 (EKVX NSCLC): 5.03 µM | TGI (EKVX NSCLC): 73.9 µM | GI50 (SF-539 CNS): 16.3 µM | TGI (SF-539 CNS): > 100 µM | GI50 (HOP-62 NSCLC): 12.8 µM | TGI (HOP-62 NSCLC): > 100 µM | GI50 (U251 CNS): 4.47 µM | TGI (U251 CNS): > 100 µM | GI50 (ACHN renal): 2.67 µM | TGI (ACHN renal): > 100 µM | GI50 (K-562 leukemia): 4.81 µM | TGI (K-562 leukemia): > 100 µM | GI50 (T-47D breast): 5.78 µM | TGI (T-47D breast): 34 µM | GI50 (DU-145 prostate): 1.04 µM | TGI (DU-145 prostate): 18.9 µM | GI50 (CCRF-CEM leukemia): 4.75 µM | TGI (CCRF-CEM leukemia): > 100 µM | GI50 (SF-268 CNS): 2.61 µM | TGI (SF-268 CNS): 33.5 µM | GI50 (SK-OV-3 ovarian): 13.7 µM | TGI (SK-OV-3 ovarian): > 100 µM | GI50 (SNB-75 CNS): 2.97 µM | TGI (SNB-75 CNS): 37.2 µM | GI50 (OVCAR-8 ovarian): 5.07 µM | TGI (OVCAR-8 ovarian): > 100 µM | GI50 (HCT-15 colon): 4.09 µM | TGI (HCT-15 colon): > 100 µM | GI50 (OVCAR-3 ovarian): 1.24 µM | TGI (OVCAR-3 ovarian): 19.9 µM | GI50 (LOX IMVI melanoma): 4.67 µM | TGI (LOX IMVI melanoma): > 100 µM | GI50 (RXF 393 renal): 4.05 µM | TGI (RXF 393 renal): 39.4 µM | GI50 (HCT-116 colon): 3.95 µM | TGI (HCT-116 colon): 19.8 µM | GI50 (NCI-H226 lung): 6 µM | TGI (NCI-H226 lung): 69.1 µM | GI50 (SW-620 colon): 7.22 µM | TGI (SW-620 colon): > 100 µM | GI50 (BT-549 breast): 7.95 µM | TGI (BT-549 breast): 31.2 µM | GI50 (SF-295 CNS): 2.73 µM | TGI (SF-295 CNS): 15.1 µM | GI50 (IGROV1 ovarian): 2.53 µM | TGI (IGROV1 ovarian): 15.5 µM | GI50 (UACC-62 melanoma): 4.03 µM | TGI (UACC-62 melanoma): 28.4 µM | GI50 (A498 renal): 2.07 µM | TGI (A498 renal): 55 µM | GI50 (UACC-257 melanoma): 13.9 µM | TGI (UACC-257 melanoma): 68.8 µM | GI50 (MOLT-4 leukemia): 6.97 µM | TGI (MOLT-4 leukemia): 57.8 µM | GI50 (HS 578T breast): 6.12 µM | TGI (HS 578T breast): 72.3 µM | GI50 (OVCAR-5 ovarian): 39 µM | TGI (OVCAR-5 ovarian): > 100 µM | GI50 (M14 melanoma): 6.45 µM | TGI (M14 melanoma): 30.9 µM | GI50 (A549 NSCLC): 3.89 µM | TGI (A549 NSCLC): > 100 µM | GI50 (MCF7 breast): 2 µM | TGI (MCF7 breast): 36.2 µM | GI50 (SK-MEL-5 melanoma): 3.01 µM | TGI (SK-MEL-5 melanoma): 15.7 µM | GI50 (UO-31 renal): 1.42 µM | TGI (UO-31 renal): 16.5 µM | GI50 (CAKI-1 renal): 2.27 µM | TGI (CAKI-1 renal): 24.5 µM | GI50 (COLO 205 colon): 3.01 µM | TGI (COLO 205 colon): 22.8 µM | GI50 (NCI/ADR-RES ovarian): 7.62 µM | TGI (NCI/ADR-RES ovarian): > 100 µM | GI50 (SK-MEL-28 melanoma): 12.8 µM | TGI (SK-MEL-28 melanoma): > 100 µM | GI50 (HOP-92 NSCLC): 13.4 µM | TGI (HOP-92 NSCLC): > 100 µM | GI50 (MDA-MB-231 breast): 24.8 µM | TGI (MDA-MB-231 breast): > 100 µM | GI50 (SNB-19 CNS): 10.3 µM | TGI (SNB-19 CNS): > 100 µM | GI50 (MDA-MB-435): 3.1 µM | TGI (MDA-MB-435): 22.7 µM | GI50 (NCI-H460 lung): 3.55 µM | TGI (NCI-H460 lung): > 100 µM | GI50 (TK-10 renal): 16.1 µM | TGI (TK-10 renal): > 100 µM | GI50 (NCI-H23 lung): 8.95 µM | TGI (NCI-H23 lung): > 100 µM
